Test results: patent US9050346B2, “Bromodomain inhibitors” (AbbVie Inc., priority 2013, dated 2015)

What was measured:
BRD4 (BDI_K57-E168) = target: T1, BRD4 (BDI_K57-E168) (Homo sapiens, UniProt O60885); experiment: TR-FRET bromodomain binding assay, BRD4 first bromodomain; settings: His-tagged BD1, 100 nM Alexa647 probe; Ki calculated from IC50; dilution protocol A-G
T1 construct: BD1: amino acids K57-E168; made in house
Procedure: (§1) A time-resolved fluorescence resonance energy transfer (TR-FRET) assay was used to determine the affinities of compounds of the Examples listed in Table 1 for each bromodomain of BRD4. His-tagged first (BD1: amino acids K57-E168) and second (BD2: amino acids E352-E168) bromodomains of BRD4 were expressed and purified. An Alexa647-labeled BET-inhibitor was used as the fluorescent probe in the assay.
(§2) Compound dilution series were prepared in DMSO via an approximately 3-fold serial dilution from one of the following: • Assay method A: 2.5 mM-800 nM • Assay method B: 2.5 mM-797 nM • Assay method C: 1250 μM-21 nM • Assay method D: 500 μM-8.5 nM • Assay method E: 0.47 mM to 7.8 nM • Assay method F: 250 μM-4.2 nM • Assay method G: 0.047 mM to 0.78 nM or 5-fold serial dilution from Assay Method A or Assay Method B.
(§3) For Assay methods A, C, D, and F: Compounds were then diluted 6:100 in assay buffer (20 mM Sodium Phosphate, pH 6.0, 50 mM NaCl, 1 mM Ethylenediaminetetraacetic acid, 0.01% Triton X-100, 1 mM DL-Dithiothreitol) to yield 3× working solutions. Six microliters (μL) of the working solution was then transferred to white, low-volume assay plates (Costar #3673). A 1.5× assay mixture containing His-tagged bromodomain, Europium-conjugated anti-His antibody (Invitrogen PV5596) and the Alexa-647-conjugated probe molecule was also prepared. Twelve μL of this solution were added to the assay plate to reach a final volume of 18 μL.
(§4) For Assay methods B, E, and G: Compound dilutions were added directly into white, low-volume assay plates (Perkin Elmer Proxiplate 384 Plus#6008280) using a Labcyte Echo in conjunction with Labcyte Access and Thermo Multidrop CombinL robotics. Compounds were then suspended in eight microliters (μL) of assay buffer (20 mM Sodium Phosphate, pH 6.0, 50 mM NaCl, 1 mM Ethylenediaminetetraacetic acid disodium salt dihydrate, 0.01% Triton X-100, 1 mM DL-Dithiothreitol) containing His-tagged bromodomain, Europium-conjugated anti-His antibody (Invitrogen PV5596) and Alexa-647-conjugated probe.
(§5) The final concentration of 1× assay mixture for assay methods A, B, C, D, E, F, and G contains 2% DMSO, 8 nM His-tagged bromodomain, 1 nM Europium-conjugated anti-His-tag antibody and 100 nM or 30 nM probe (for BDI or BDII, respectively) and compound concentration in the range of: 50 μM-16 nM for method A, 49.02 μM-15.63 nM for method B, 25 μM-423 pM for method C, 10 μM-169 pM for method D, 9.19 μM-150 pM for method E, 5 μM-85 pM for method F, and 0.92 μM-15 pM for method G.
(§6) After a one-hour equilibration at room temperature, TR-FRET ratios were determined using an Envision multilabel plate reader (Ex 340, Em 495/520).
(§7) TR-FRET data were normalized to the means of 24 no-compound controls (“high”) and 8 controls containing 1 μM un-labeled probe (“low”). Percent inhibition was plotted as a function of compound concentration and the data were fit with the 4 parameter logistic equation to obtain IC50s Inhibition constants (Ki) were calculated from the IC50s, probe Kd and probe concentration. Typical Z′ values were between 0.65 and 0.75. The minimum significant ratio was determined to evaluate assay reproducibility (Eastwood et al., (2006) J Biomol Screen, 11: 253-261). The MSR was determined to be 2.03 for BDI and 1.93 for BDII, and a moving MSR (last six run MSR overtime) for both BDI and BDII was typically <3.

BRD4 (BDII_E352-M457) = target: T2, BRD4 (BDII_E352-M457) (Homo sapiens, UniProt O60885); experiment: TR-FRET bromodomain binding assay, BRD4 second bromodomain
T2 construct: made in house
Procedure: as §1, §2, §3, §4, §5, §6, §7

[1] = test system: breast cancer cell line MX-1; experiment: MX-1 cell line proliferation assay (3-day, Cell Titer Glo); assay type: cell-based; settings: Homo sapiens, MX1, MX-1 cells, 72 h, top concentration 3 μM, read-out: Cellular proliferation: EC50
Procedure: The impact of compounds of the Examples on cancer cell proliferation was determined using the breast cancer cell line MX-1 (ATCC) in a 3-day proliferation assay and the data are reported in Table 1. MX-1 cells were maintained in RPMI 1640 medium (Sigma) supplemented with 10% FBS at 37 C.° and an atmosphere of 5% CO2. For compound testing, MX-1 cells were plated in 96-well black bottom plates at a density of 5000 cells/well in 90 μL of culture media and incubated at 37° overnight to allow cell adhesion and spreading. Compound dilution series were prepared in DMSO via a 3-fold serial dilution from 3 mM to 0.1 μM. The DMSO dilution series were then diluted 1:100 in phosphate buffered saline, and 10 μL of the resulted solution were added to the appropriate wells of the MX-1 cell plate. The final compound concentrations in the wells were 3, 1, 0.3, 0.1, 0.03, 0.01, 0.003, 0.001, 0.0003 and 0.0001 μM.
Luminescence readings from the Cell Titer Glo assay were normalized to the DMSO treated cells and analyzed using the GraphPad Prism software with sigmoidal curve fitting to obtain EC50s. The minimum significant ratio (MSR) was determined to evaluate assay reproducibility (Eastwood et al., (2006) J Biomol Screen, 11: 253-261).

Ki (BRD4 (BDI_K57-E168)) | Ki (BRD4 (BDII_E352-M457)) | EC50 [1] | Compound
12.1 nM | 51.8 nM | 222 nM | CCOC(=O)c1cc2c(-c3cc(S(C)(=O)=O)ccc3Oc3ccc(F)cc3F)[nH]c(C)c2c(=O)[nH]1 [Example 39, ethyl 1-[2-(2,4-difluorophenoxy)-5-(methylsulfonyl)phenyl]-3-methyl-4-oxo-4,5-dihydro-2H-pyrrolo[3,4-c]pyridine-6-carboxylate]
10.1 nM | 13.9 nM | 161 nM | Cc1[nH]c(-c2ccccc2Oc2ccccc2)c2cc(C(=O)NC3CCOC3)[nH]c(=O)c12 (centres unmarked) [Example 37, 3-methyl-4-oxo-1-(2-phenoxyphenyl)-N-(tetrahydrofuran-3-yl)-4,5-dihydro-2H-pyrrolo[3,4-c]pyridine-6-carboxamide]
1.78 nM | 15.8 nM | 252 nM | Cc1[nH]c(-c2ccccc2Oc2ccccc2)c2cc(C(=O)NC3CCNCC3)[nH]c(=O)c12 [Example 57, 3-methyl-4-oxo-1-(2-phenoxyphenyl)-N-(piperidin-4-yl)-4,5-dihydro-2H-pyrrolo[3,4-c]pyridine-6-carboxamide]
8.25 nM | 72.1 nM | 162 nM | Cc1[nH]c(-c2ccccc2Oc2ccccc2)c2cc(C(=O)NN(C)C)[nH]c(=O)c12 [Example 53, N′,N′,3-trimethyl-4-oxo-1-(2-phenoxyphenyl)-4,5-dihydro-2H-pyrrolo[3,4-c]pyridine-6-carbohydrazide]
16.6 nM | 29 nM | 300 nM | Cc1[nH]c(-c2ccccc2Oc2ccccc2)c2cc(C(=O)NC3CCOCC3)[nH]c(=O)c12 [Example 38, 3-methyl-4-oxo-1-(2-phenoxyphenyl)-N-(tetrahydro-2H-pyran-4-yl)-4,5-dihydro-2H-pyrrolo[3,4-c]pyridine-6-carboxamide]
36.9 nM | 97.5 nM | 763 nM | Cc1[nH]c(-c2ccccc2Oc2ccccc2)c2cc(C(=O)NC(C)(C)C#N)[nH]c(=O)c12 [Example 52, N-(2-cyanopropan-2-yl)-3-methyl-4-oxo-1-(2-phenoxyphenyl)-4,5-dihydro-2H-pyrrolo[3,4-c]pyridine-6-carboxamide]
4.31 nM | 11.9 nM | 31.7 nM | Cc1[nH]c(-c2ccccc2Oc2ccccc2)c2cc(C(N)=O)[nH]c(=O)c12 [Example 11, 3-methyl-4-oxo-1-(2-phenoxyphenyl)-4,5-dihydro-2H-pyrrolo[3,4-c]pyridine-6-carboxamide]
42.7 nM | 16.8 nM | 515 nM | Cc1[nH]c(-c2ccccc2Oc2ccccc2)c2cc(C(=O)Nc3ccncc3)[nH]c(=O)c12 [Example 28, 3-methyl-4-oxo-1-(2-phenoxyphenyl)-N-(pyridin-4-yl)-4,5-dihydro-2H-pyrrolo[3,4-c]pyridine-6-carboxamide]
105 nM | 307 nM | 1120 nM | Cc1[nH]c(-c2ccccc2Oc2ccccc2)c2cc(C(=O)N3CCOCC3)[nH]c(=O)c12 [Example 15, 3-methyl-6-(morpholine-4-carbonyl)-1-(2-phenoxyphenyl)-2H-pyrrolo[3,4-c]pyridin-4(5H)-one]
32.7 nM | 170 nM | 616 nM | Cc1[nH]c(-c2ccccc2Oc2ccccc2)c2cc(C(=O)N3CCN(C)CC3)[nH]c(=O)c12 [Example 16, 3-methyl-6-(4-methylpiperazine-1-carbonyl)-1-(2-phenoxyphenyl)-2H-pyrrolo[3,4-c]pyridin-4(5H)-one]
13 nM | 116 nM | 111 nM | Cc1[nH]c(-c2ccccc2Oc2ccccc2)c2cc(-c3nc(-c4cccnc4)no3)[nH]c(=O)c12 [Example 60, 3-methyl-1-(2-phenoxyphenyl)-6-(3-(pyridin-3-yl)-1,2,4-oxadiazol-5-yl)-2H-pyrrolo[3,4-c]pyridin-4(5H)-one]
3.33 nM | 19.8 nM | 41.5 nM | COC(=O)c1cc2c(-c3cc(NS(C)(=O)=O)ccc3Oc3ccccc3)[nH]c(C)c2c(=O)[nH]1 [Example 3, methyl 3-methyl-1-(5-(methylsulfonamido)-2-phenoxyphenyl)-4-oxo-4,5-dihydro-2H-pyrrolo[3,4-c]pyridine-6-carboxylate]
15.6 nM | 112 nM | 288 nM | CCS(=O)(=O)c1ccc(NCC2CC2)c(-c2[nH]c(C)c3c(=O)[nH]ncc23)c1 [Example 84, 5-{2-[(cyclopropylmethyl)amino]-5-(ethylsulfonyl)phenyl}-7-methyl-2,6-dihydro-1H-pyrrolo[3,4-d]pyridazin-1-one]
3.66 nM | 9.47 nM | 51.8 nM | CCS(=O)(=O)Nc1ccc(Oc2ccccc2)c(-c2[nH]c(C)c3c(=O)[nH]ncc23)c1 [Example 75, N-[3-(7-methyl-1-oxo-2,6-dihydro-1H-pyrrolo[3,4-d]pyridazin-5-yl)-4-phenoxyphenyl]ethanesulfonamide]
3.26 nM | 24.4 nM | 92.2 nM | Cc1[nH]c(-c2cc(NS(C)(=O)=O)ccc2Oc2ccc(F)cc2F)c2cn[nH]c(=O)c12 [Example 80, N-[4-(2,4-difluorophenoxy)-3-(7-methyl-1-oxo-2,6-dihydro-1H-pyrrolo[3,4-d]pyridazin-5-yl)phenyl]methanesulfonamide]
3.04 nM | 24.6 nM | 67 nM | COC(=O)c1cc2c(-c3ccccc3Oc3ccccc3)[nH]c(C)c2c(=O)[nH]1 [Example 1, methyl 3-methyl-4-oxo-1-(2-phenoxyphenyl)-4,5-dihydro-2H-pyrrolo[3,4-c]pyridine-6-carboxylate]
87.6 nM | 155 nM | 182 nM | Cc1[nH]c(-c2ccccc2Oc2ccccc2)c2cc(C(=O)NCc3ccco3)[nH]c(=O)c12 [Example 31, N-(furan-2-ylmethyl)-3-methyl-4-oxo-1-(2-phenoxyphenyl)-4,5-dihydro-2H-pyrrolo[3,4-c]pyridine-6-carboxamide]
2.28 nM | 7.11 nM | 29.2 nM | Cc1[nH]c(-c2ccccc2Oc2ccccc2)c2cc(-c3nc(Cn4cncn4)no3)[nH]c(=O)c12 [Example 64, 6-(3-((1H-1,2,4-triazol-1-yl)methyl)-1,2,4-oxadiazol-5-yl)-3-methyl-1-(2-phenoxyphenyl)-2H-pyrrolo[3,4-c]pyridin-4(5H)-one]
10.5 nM |  | 180 nM | Cc1[nH]c(-c2ccccc2Oc2ccccc2)c2cc(-c3nc(-c4ccncc4)no3)[nH]c(=O)c12 [Example 45, 3-methyl-1-(2-phenoxyphenyl)-6-(3-(pyridin-4-yl)-1,2,4-oxadiazol-5-yl)-2H-pyrrolo[3,4-c]pyridin-4(5H)-one]
